{
  "source": "patent US8765060B2",
  "about": "“Chemical sensor” (Regents of the University of Minnesota, priority 2005, dated 2014)",
  "key": {"[1]": {"experiment": "Solubility in perfluoro(tributylamine)"}, "[2]": {"settings": "assuming 1:1 stoichiometry; cited from earlier work"}, "[3]": {"settings": "assuming 1:1 stoichiometry; cited from earlier work", "remark": "listed apart in the source"}, "[4]": {"experiment": "Extraction of lipophilic acids into fluorous membranes, 1H NMR", "type": "physicochemical", "settings": "aqueous buffered solutions of 10^−3.5 M acid; 1H NMR of membrane"}, "[5]": {"settings": "cited from earlier work"}, "[6]": {"settings": "cited from earlier work", "remark": "listed apart in the source"}, "[7]": {"settings": "cited from earlier work", "remark": "listed apart in the source"}, "[8]": {"settings": "PFPHP saturated with substance, salts judged by resistance of soaked porous PTFE membranes"}},
  "note": "Read-outs that look alike come from different tables or passages of the source.",
  "data": [
    {"compound": "S=C(NCc1cccc(CNC(=S)Nc2ccccc2)c1)Nc1ccccc1", "values": [
      {"measurement": "solubility in PFPHP", "setting": "physchem", "value": "poorly soluble"}
    ]},
    {"compound": "FC(F)(F)c1cc([B-](c2cc(C(F)(F)F)cc(C(F)(F)F)c2)(c2cc(C(F)(F)F)cc(C(F)(F)F)c2)c2cc(C(F)(F)F)cc(C(F)(F)F)c2)cc(C(F)(F)F)c1.[Na+]", "values": [
      {"measurement": "solubility in PFPHP", "setting": "physchem", "value": "not soluble enough"}
    ]},
    {"compound": "OC(c1cccc(C(O)(C(F)(F)F)C(F)(F)F)c1)(C(F)(F)F)C(F)(F)F", "values": [
      {"measurement": "solubility in PFPHP", "setting": "physchem; [8]", "value": "poorly soluble"},
      {"measurement": "solubility in perfluoro(tributylamine)", "setting": "[1]", "value": "poorly soluble"}
    ]},
    {"compound": "FC(OC(F)(F)C(F)(OC(F)(F)C(F)(OC(F)(F)C(F)(OC(F)(F)C(F)(F)C(F)(F)F)C(F)(F)F)C(F)(F)F)C(F)(F)F)C(F)(F)F", "note": "(centres unmarked) [2H-perfluoro-5,8,11-trimethyl-3,6,9,12-tetraoxapentadecane]", "values": [
      {"measurement": "formal association constant with Na^+", "setting": "[2]", "value": 2.3, "unit": "M⁻¹"},
      {"measurement": "formal association constant with Li^+", "setting": "[3]", "value": 1.5, "unit": "M⁻¹"}
    ]},
    {"compound": "CCCCCCCCC(CCCCCCCC)CN=c1cc2oc3cc(N(CC)CC)ccc3nc-2c2ccccc12", "note": "[Chromoionophroes III]", "values": [
      {"measurement": "solubility in PFPHP", "setting": "physchem", "value": "poorly soluble"}
    ]},
    {"compound": "CCCCC(CCCC)OC(=O)CCCCCCCCCCOC(=O)Cc1ccc(N=c2cc3oc4cc(N(C)C)ccc4nc-3c3ccccc23)cc1", "note": "[Chromoionophroes II]", "values": [
      {"measurement": "solubility in PFPHP", "setting": "physchem", "value": "poorly soluble"}
    ]},
    {"compound": "CCCCCCCCCCCCCCCCCC(=O)N=c1cc2oc3cc(N(CC)CC)ccc3nc-2c2ccccc12", "note": "[Chromoionophroes I]", "values": [
      {"measurement": "solubility in PFPHP", "setting": "physchem", "value": "poorly soluble"}
    ]},
    {"compound": "CCCCCCCCCCCC[N+](CCCCCCCCCCCC)(CCCCCCCCCCCC)CCCCCCCCCCCC.Clc1ccc([B-](c2ccc(Cl)cc2)(c2ccc(Cl)cc2)c2ccc(Cl)cc2)cc1", "note": "[ETH 500, tetradecylammonim tetrakis[p-chlorophenyl]borate]", "values": [
      {"measurement": "solubility in PFPHP", "setting": "physchem; [8]", "value": "not sufficiently soluble"}
    ]},
    {"compound": "CCCCCCCCCCCCCCCCCCOC(=O)c1ccncc1", "note": "[Hydrogen Ionophre IV]", "values": [
      {"measurement": "solubility in PFPHP", "setting": "physchem", "value": "poorly soluble"}
    ]},
    {"compound": "C[C@H](CCC(=O)O)[C@H]1CC[C@H]2[C@@H]3[C@H](O)C[C@@H]4C[C@H](O)CC[C@]4(C)[C@H]3C[C@H](O)[C@]12C", "note": "[cholic acid]", "values": [
      {"measurement": "extraction into fluorous membranes", "setting": "[4]", "value": "not extracted to any significant amount"}
    ]},
    {"compound": "FC(F)(F)C(F)(F)C(F)(F)C(F)(F)C(F)(F)C(F)(F)c1cc([B-](c2cc(C(F)(F)C(F)(F)C(F)(F)C(F)(F)C(F)(F)C(F)(F)F)cc(C(F)(F)C(F)(F)C(F)(F)C(F)(F)C(F)(F)C(F)(F)F)c2)(c2cc(C(F)(F)C(F)(F)C(F)(F)C(F)(F)C(F)(F)C(F)(F)F)cc(C(F)(F)C(F)(F)C(F)(F)C(F)(F)C(F)(F)C(F)(F)F)c2)c2cc(C(F)(F)C(F)(F)C(F)(F)C(F)(F)C(F)(F)C(F)(F)F)cc(C(F)(F)C(F)(F)C(F)(F)C(F)(F)C(F)(F)C(F)(F)F)c2)cc(C(F)(F)C(F)(F)C(F)(F)C(F)(F)C(F)(F)C(F)(F)F)c1.[Na+]", "note": "[compound 2]", "values": [
      {"measurement": "solubility", "setting": "physchem; organic solvent or mixture", "value": 1400, "unit": "µM"}
    ]},
    {"compound": "c1ccc(CSCc2ccccc2)cc1", "note": "[dibenzyl sulfide]", "values": [
      {"measurement": "solubility in PFPHP", "setting": "physchem", "value": "poorly soluble"}
    ]},
    {"compound": "CCCCCCCC(=O)O", "note": "[octanoic acid]", "values": [
      {"measurement": "extraction into fluorous membranes", "setting": "[4]", "value": "not extracted to any significant amount"}
    ]},
    {"compound": "FC(F)(F)C(F)(F)C(F)(F)C(F)(F)C(F)(F)N(C(F)(F)C(F)(F)C(F)(F)C(F)(F)C(F)(F)F)C(F)(F)C(F)(F)C(F)(F)C(F)(F)C(F)(F)F", "note": "[perfluorotripentylamine]", "values": [
      {"measurement": "formal pKa", "setting": "[5]", "value": "smaller than −0.5"},
      {"measurement": "association with any ion tested", "setting": "[5]; inorganic monocations", "value": "does not undergo measurable association"}
    ]},
    {"compound": "CCCC[N+](CCCC)(CCCC)CCCC.F[B-](F)(F)F", "note": "[tetrabutyl-ammonium tetrafluoroborate]", "values": [
      {"measurement": "log Kip", "setting": "[6]; in α,α,α-trifluorotoluene", "value": 5.4}
    ]},
    {"compound": "CCCCCCCC[N+](CCCCCCCC)(CCCCCCCC)CCCCCCCC.[Cl-]", "note": "[tetraoctylammonium chloride]", "values": [
      {"measurement": "log Kip", "setting": "[6]; in 98.2 toluene-nitrobenzene", "value": 14.9}
    ]},
    {"compound": "CCCCCCCCCCCCN(CCCCCCCCCCCC)CCCCCCCCCCCC", "note": "[tridodecylamine]", "values": [
      {"measurement": "solubility in PFPHP", "setting": "physchem", "value": "poorly soluble"}
    ]},
    {"compound": "CCCCCCCCCCCC[N+](C)(CCCCCCCCCCCC)CCCCCCCCCCCC.[Cl-]", "note": "[tridodecylmethylammonium chloride]", "values": [
      {"measurement": "solubility in PFPHP", "setting": "physchem", "value": "not soluble enough"}
    ]},
    {"compound": "CC(C)[C@@H]1NC(=O)[C@H](C)OC(=O)[C@@H](C(C)C)NC(=O)[C@@H](C(C)C)OC(=O)[C@H](C(C)C)NC(=O)[C@H](C)OC(=O)[C@@H](C(C)C)NC(=O)[C@@H](C(C)C)OC(=O)[C@H](C(C)C)NC(=O)[C@H](C)OC(=O)[C@@H](C(C)C)NC(=O)[C@@H](C(C)C)OC1=O", "note": "[valinomycin]", "values": [
      {"measurement": "solubility in PFPHP", "setting": "physchem; [8]", "value": "poorly soluble"},
      {"measurement": "log K^potK,Na", "setting": "[7]; after exposure to an extract of urine", "value": "−3.1"},
      {"measurement": "log K^potK,Na", "setting": "[7]; before exposure to an extract of urine", "value": "−3.9"},
      {"measurement": "solubility in perfluoro(tributylamine)", "setting": "[1]", "value": "poorly soluble"}
    ]},
    {"compound": "tetrakis-(decyl)ammonium tetraphenylborate", "values": [
      {"measurement": "log Kip", "setting": "[6]; in cyclohexane", "value": 14.2}
    ]}
  ]
}
